Test [1] concerns the target T1, AdmX-LBD (Serratia plymuthica, UniProt P0DV33, E213Q).
T1 construct: fast monomer-dimer equilibrium shifted toward dimer, dimer in crystal
T1 sequence (P0DV33 69-295 E213Q): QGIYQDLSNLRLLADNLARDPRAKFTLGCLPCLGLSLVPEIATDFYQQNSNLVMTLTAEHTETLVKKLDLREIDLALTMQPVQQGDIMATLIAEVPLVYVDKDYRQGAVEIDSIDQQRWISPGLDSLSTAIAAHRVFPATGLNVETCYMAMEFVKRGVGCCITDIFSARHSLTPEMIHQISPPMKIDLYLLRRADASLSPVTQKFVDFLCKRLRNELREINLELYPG
As to the kind of experiment: isothermal titration calorimetry. It is filed as binding. The note with it: read-out: dissociation constant. In general terms: In ITC the heat of successive injections is recorded.

In test [2] the target is T2, AdmX-LBD (Serratia plymuthica, UniProt P0DV33, C100S).
T2 construct: fast monomer-dimer equilibrium shifted toward dimer, dimer in crystal
T2 sequence (P0DV33 69-295 C100S): T1 sequence (P0DV33 69-295 E213Q)
Put plainly: isothermal titration calorimetry. It is filed as binding. The settings on record: read-out: dissociation constant.

Kd data for two molecules are collected here from article PMC9973260, “Emergence of an Auxin Sensing Domain in Plant-Associated Bacteria” (mBio, 2023).

On to `O=C(O)C(=O)Cc1c[nH]c2ccccc12` [indole-3-pyruvic acid], for which the values for the Kd in test [1] and in test [2] were 6 ± 0.7 µM and 31.5 ± 1.6 µM, respectively.
For `O=C(O)Cc1c[nH]c2ccccc12` [indole-3-acetic acid], the Kd worked out at 23.9 ± 2.4 µM in test [1] and 51 ± 3.4 µM in test [2].
